Measurements: ChEMBL document CHEMBL5108011, “Design, synthesis and antitumor evaluation of ATP dual-mimic 2,4-diarylaminopyrimidine and aminoindazole conjugates as potent anaplastic lymphoma kinase inhibitors” (Eur J Med Chem, 2022)
Calls of active or inactive are those of the source. The rule behind the calls is not given here.

How the values were obtained:
[1] = molecular target: ALK tyrosine kinase receptor (Homo sapiens, UniProt Q9UM73); experiment: Inhibition of ALK (unknown origin) incubated for 1 hr and measured by mobility shift assay
Sequence of ALK tyrosine kinase receptor (Homo sapiens, UniProt Q9UM73) (Q9UM73 whole entry): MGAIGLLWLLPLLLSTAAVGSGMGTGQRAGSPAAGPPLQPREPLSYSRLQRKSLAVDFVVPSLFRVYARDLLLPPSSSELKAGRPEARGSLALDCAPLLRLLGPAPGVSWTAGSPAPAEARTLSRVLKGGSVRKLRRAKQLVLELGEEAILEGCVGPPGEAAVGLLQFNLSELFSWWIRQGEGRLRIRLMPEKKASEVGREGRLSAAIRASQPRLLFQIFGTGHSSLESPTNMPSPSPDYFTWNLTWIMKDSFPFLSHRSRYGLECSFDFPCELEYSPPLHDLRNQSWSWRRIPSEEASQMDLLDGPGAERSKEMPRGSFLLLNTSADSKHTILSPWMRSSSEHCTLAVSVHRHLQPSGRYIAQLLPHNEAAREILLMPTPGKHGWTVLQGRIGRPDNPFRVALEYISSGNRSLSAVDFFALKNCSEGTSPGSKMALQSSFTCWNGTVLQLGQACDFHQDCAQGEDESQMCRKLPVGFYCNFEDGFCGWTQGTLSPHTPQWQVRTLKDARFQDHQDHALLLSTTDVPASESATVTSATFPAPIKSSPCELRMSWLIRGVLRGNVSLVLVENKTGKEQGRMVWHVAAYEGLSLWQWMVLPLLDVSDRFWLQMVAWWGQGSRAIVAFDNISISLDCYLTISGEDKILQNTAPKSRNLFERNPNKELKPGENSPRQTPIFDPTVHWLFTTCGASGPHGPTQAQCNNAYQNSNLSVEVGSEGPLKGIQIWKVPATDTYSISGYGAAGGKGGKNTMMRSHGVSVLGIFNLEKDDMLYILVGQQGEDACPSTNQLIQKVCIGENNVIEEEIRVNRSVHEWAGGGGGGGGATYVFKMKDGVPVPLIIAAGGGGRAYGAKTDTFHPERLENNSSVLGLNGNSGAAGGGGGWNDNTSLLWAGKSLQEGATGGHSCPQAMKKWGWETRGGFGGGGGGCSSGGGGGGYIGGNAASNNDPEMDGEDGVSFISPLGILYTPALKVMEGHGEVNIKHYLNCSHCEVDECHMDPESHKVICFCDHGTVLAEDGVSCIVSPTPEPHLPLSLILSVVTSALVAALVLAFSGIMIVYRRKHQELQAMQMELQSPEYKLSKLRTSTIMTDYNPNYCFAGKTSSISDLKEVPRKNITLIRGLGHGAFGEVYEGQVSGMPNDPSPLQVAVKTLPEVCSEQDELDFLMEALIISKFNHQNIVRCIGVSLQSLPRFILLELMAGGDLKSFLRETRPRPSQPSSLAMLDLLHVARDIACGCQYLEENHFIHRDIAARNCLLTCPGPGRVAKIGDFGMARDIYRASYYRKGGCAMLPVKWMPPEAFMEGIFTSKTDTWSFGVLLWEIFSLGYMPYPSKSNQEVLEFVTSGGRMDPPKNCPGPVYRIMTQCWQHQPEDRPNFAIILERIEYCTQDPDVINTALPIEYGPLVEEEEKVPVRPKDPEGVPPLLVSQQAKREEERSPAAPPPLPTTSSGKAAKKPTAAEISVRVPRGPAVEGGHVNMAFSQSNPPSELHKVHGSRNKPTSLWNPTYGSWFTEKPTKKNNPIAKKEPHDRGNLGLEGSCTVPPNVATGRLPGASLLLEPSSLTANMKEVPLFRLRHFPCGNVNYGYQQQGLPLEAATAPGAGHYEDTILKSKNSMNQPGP

[2] = molecular target: ALK tyrosine kinase receptor (Homo sapiens, UniProt Q9UM73, L1196M); experiment: Inhibition of ALK L1196M mutant (unknown origin) incubated for 1 hr and measured by mobility shift assay
Sequence of ALK tyrosine kinase receptor (Homo sapiens, UniProt Q9UM73, L1196M) (Q9UM73 19-1620 L1196M limits assumed): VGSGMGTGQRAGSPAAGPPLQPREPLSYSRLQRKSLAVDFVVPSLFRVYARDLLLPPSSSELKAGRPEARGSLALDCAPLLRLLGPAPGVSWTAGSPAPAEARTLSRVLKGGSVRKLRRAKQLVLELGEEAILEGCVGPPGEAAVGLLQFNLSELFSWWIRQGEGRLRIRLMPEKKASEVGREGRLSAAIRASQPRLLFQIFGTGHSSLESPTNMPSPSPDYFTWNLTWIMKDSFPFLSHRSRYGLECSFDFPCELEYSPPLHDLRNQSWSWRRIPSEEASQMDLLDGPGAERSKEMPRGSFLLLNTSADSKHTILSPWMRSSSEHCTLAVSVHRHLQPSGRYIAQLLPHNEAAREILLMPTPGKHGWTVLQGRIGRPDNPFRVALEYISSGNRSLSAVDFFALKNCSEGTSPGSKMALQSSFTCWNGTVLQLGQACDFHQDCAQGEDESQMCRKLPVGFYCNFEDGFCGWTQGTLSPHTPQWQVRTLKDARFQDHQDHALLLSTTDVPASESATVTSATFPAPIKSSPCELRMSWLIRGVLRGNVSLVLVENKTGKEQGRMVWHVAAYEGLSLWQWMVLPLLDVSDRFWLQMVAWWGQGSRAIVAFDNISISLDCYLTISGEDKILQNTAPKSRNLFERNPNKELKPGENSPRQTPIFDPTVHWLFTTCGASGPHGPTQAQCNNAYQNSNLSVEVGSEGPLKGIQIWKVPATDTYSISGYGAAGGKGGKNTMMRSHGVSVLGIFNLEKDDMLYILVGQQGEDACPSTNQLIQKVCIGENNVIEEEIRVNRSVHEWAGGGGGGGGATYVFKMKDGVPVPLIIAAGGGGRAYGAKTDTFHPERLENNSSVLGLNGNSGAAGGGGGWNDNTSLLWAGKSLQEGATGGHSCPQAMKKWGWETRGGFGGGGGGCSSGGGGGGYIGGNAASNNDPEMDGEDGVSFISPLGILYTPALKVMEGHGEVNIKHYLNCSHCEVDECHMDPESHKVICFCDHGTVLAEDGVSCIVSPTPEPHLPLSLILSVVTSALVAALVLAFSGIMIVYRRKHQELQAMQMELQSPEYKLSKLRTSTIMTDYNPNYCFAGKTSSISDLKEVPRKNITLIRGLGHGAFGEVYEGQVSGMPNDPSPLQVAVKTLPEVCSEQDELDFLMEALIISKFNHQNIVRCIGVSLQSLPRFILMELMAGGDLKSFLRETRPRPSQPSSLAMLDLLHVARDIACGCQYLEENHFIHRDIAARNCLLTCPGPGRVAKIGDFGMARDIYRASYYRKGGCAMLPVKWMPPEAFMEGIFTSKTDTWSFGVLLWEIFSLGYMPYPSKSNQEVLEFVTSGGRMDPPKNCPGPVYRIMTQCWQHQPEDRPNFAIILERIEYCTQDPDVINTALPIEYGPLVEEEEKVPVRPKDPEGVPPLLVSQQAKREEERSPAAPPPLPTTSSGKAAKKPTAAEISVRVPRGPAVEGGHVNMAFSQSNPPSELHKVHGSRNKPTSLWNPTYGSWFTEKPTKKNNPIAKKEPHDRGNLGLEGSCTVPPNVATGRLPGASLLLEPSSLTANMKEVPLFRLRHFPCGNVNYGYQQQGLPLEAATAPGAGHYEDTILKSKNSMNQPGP

[3] = molecular target: ALK tyrosine kinase receptor (Homo sapiens, UniProt Q9UM73, G1202R); experiment: Inhibition of ALK G1202R mutant (unknown origin) incubated for 1 hr and measured by mobility shift assay
Sequence of ALK tyrosine kinase receptor (Homo sapiens, UniProt Q9UM73, G1202R) (Q9UM73 19-1620 G1202R limits assumed): as the sequence (Q9UM73 19-1620 L1196M limits assumed) above, with M1178L, G1184R counted along it

[4] = molecular target: Epidermal growth factor receptor (Homo sapiens, UniProt P00533); experiment: Inhibition of EGFR (unknown origin) incubated for 1 hr and measured by mobility shift assay
Sequence of Epidermal growth factor receptor (P00533 whole entry): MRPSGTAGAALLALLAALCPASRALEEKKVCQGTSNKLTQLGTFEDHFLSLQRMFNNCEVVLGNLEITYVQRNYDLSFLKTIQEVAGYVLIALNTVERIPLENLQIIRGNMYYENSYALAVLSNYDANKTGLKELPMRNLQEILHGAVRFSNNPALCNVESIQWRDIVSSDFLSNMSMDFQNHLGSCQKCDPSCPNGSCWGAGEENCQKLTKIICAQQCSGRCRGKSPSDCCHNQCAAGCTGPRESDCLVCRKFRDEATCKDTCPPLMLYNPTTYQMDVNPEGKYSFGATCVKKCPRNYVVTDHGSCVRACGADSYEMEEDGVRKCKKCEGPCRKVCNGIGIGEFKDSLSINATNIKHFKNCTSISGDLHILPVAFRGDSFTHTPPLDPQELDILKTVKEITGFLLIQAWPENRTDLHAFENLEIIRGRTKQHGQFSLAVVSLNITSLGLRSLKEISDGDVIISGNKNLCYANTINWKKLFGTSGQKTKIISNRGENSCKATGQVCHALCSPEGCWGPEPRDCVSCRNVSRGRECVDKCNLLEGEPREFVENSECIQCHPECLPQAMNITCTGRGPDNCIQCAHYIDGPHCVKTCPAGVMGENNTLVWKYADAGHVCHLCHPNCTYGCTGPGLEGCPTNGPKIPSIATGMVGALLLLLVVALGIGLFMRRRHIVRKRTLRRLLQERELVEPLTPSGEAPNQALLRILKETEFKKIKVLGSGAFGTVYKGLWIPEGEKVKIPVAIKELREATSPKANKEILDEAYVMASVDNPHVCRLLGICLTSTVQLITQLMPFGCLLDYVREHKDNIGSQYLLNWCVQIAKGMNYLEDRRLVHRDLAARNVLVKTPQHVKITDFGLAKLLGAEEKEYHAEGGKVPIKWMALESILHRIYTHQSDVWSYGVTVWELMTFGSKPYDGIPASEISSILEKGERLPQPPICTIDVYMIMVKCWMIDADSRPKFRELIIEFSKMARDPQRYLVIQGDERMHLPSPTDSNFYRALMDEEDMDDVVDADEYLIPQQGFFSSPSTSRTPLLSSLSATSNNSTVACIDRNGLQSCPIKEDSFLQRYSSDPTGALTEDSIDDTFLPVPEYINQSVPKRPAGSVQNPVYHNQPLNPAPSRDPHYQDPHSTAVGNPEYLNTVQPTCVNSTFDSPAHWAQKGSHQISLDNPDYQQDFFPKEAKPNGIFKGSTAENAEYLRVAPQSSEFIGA

NCI-H460 = experiment: Antiproliferative activity against human NCI-H460 cells incubated for 72 hrs and measured by CCK-8 assay; type: functional, cell-based; settings: NCI-H460, 72 h
NCI-H1581 = experiment: Antiproliferative activity against human NCI-H1581 cells incubated for 72 hrs and measured by CCK-8 assay; type: functional, cell-based; settings: NCI-H1581, 72 h
MCF7 = experiment: Antiproliferative activity against human MCF7 cells incubated for 72 hrs and measured by CCK-8 assay; type: functional, cell-based; settings: MCF7, 72 h
HCT-116 = experiment: Antiproliferative activity against human HCT-116 cells incubated for 72 hrs and measured by CCK-8 assay; type: functional, cell-based; settings: HCT-116, 72 h
PC-3 = experiment: Antiproliferative activity against human PC-3 cells incubated for 72 hrs and measured by CCK-8 assay; type: functional, cell-based; settings: PC-3, 72 h
[5] = Cytotoxicity against human HELF cells incubated for 72 hrs and measured by CCK-8 assay; type: toxicity, cell-based
NCI-H2228 [6] = experiment: Antiproliferative activity against EML4-ALK-positive human NCI-H2228 cells incubated for 3 days at 25 to 100 nM and assessed as decrease in number of colonies by colony formation assay; type: functional, cell-based; settings: dose 25-100 nM, time 3.0 day
NCI-H2228 [7] = experiment: Inhibition of cell migration in EML4-ALK-positive human NCI-H2228 cells assessed as relative migration rate at 5 nM measured after 24 hrs by cell scratch assay (reference value: 21.4 %); type: functional; design: scale not given: the % may be the effect or the level left
NCI-H2228 [8] = experiment: Inhibition of cell migration in EML4-ALK-positive human NCI-H2228 cells assessed as relative migration rate at 10 nM measured after 24 hrs by cell scratch assay (reference value: 21.4 %); type: functional; design: scale not given: the % may be the effect or the level left
NCI-H2228 [9] = experiment: Inhibition of cell migration in EML4-ALK-positive human NCI-H2228 cells assessed as relative migration rate at 5 nM measured after 48 hrs by cell scratch assay (reference value: 35.99 %); type: functional; design: scale not given: the % may be the effect or the level left
NCI-H2228 [10] = experiment: Inhibition of cell migration in EML4-ALK-positive human NCI-H2228 cells assessed as relative migration rate at 10 nM measured after 48 hrs by cell scratch assay (reference value: 35.99 %); type: functional; design: scale not given: the % may be the effect or the level left
NCI-H2228 [11] = experiment: Induction of apoptosis in EML4-ALK-positive human NCI-H2228 cells assessed as increase in apoptotic cells at 100 to 200 nM measured after 48 hrs by AO/EB staining based inverted fluorescence microscopic analysis; type: functional, cell-based; settings: dose 100-200 nM, DDE = dose-dependent effect
NCI-H2228 [12] = experiment: Induction of apoptosis in EML4-ALK-positive human NCI-H2228 cells assessed as increase in apoptotic cells at 100 to 200 nM measured after 48 hrs by Hoechst 33342 staining based assay; type: functional, cell-based; settings: dose 100-200 nM, DDE = dose-dependent effect
NCI-H2228 [13] = experiment: Induction of apoptosis in EML4-ALK-positive human NCI-H2228 cells assessed as apoptotic rate at 100 nM measured after 48 hrs by annexin V-FITC/propidium iodide staining based flow cytometry (reference value: 6.6%); type: functional
NCI-H2228 [14] = experiment: Induction of apoptosis in EML4-ALK-positive human NCI-H2228 cells assessed as apoptotic rate at 200 nM measured after 48 hrs by annexin V-FITC/propidium iodide staining based flow cytometry (reference value: 6.6%); type: functional
NCI-H2228 [15] = experiment: Cell cycle arrest in EML4-ALK-positive human NCI-H2228 cells assessed as cells accumulation at G0/G1 phase at 25 nM (reference value: 53.24%); type: functional
NCI-H2228 [16] = experiment: Cell cycle arrest in EML4-ALK-positive human NCI-H2228 cells assessed as cells accumulation at G2/M phase at 25 nM (reference value: 11.28%); type: functional
NCI-H2228 [17] = experiment: Cell cycle arrest in EML4-ALK-positive human NCI-H2228 cells assessed as cells accumulation at S phase at 25 nM (reference value: 35.48%); type: functional
NCI-H2228 [18] = experiment: Cell cycle arrest in EML4-ALK-positive human NCI-H2228 cells assessed as cells accumulation at G0/G1 phase at 50 nM (reference value: 53.24%); type: functional
NCI-H2228 [19] = experiment: Cell cycle arrest in EML4-ALK-positive human NCI-H2228 cells assessed as cells accumulation at G2/M phase at 50 nM (reference value: 11.28%); type: functional
NCI-H2228 [20] = experiment: Cell cycle arrest in EML4-ALK-positive human NCI-H2228 cells assessed as cells accumulation at S phase at 50 nM (reference value: 35.48%); type: functional
NCI-H2228 [21] = experiment: Cell cycle arrest in EML4-ALK-positive human NCI-H2228 cells assessed as cells accumulation at G0/G1 phase at 100 nM (reference value: 53.24%); type: functional
NCI-H2228 [22] = experiment: Cell cycle arrest in EML4-ALK-positive human NCI-H2228 cells assessed as cells accumulation at G2/M phase at 100 nM (reference value: 11.28%); type: functional
NCI-H2228 [23] = experiment: Cell cycle arrest in EML4-ALK-positive human NCI-H2228 cells assessed as cells accumulation at S phase at 100 nM (reference value: 35.48%); type: functional
[24] = Metabolic stability in Sprague-Dawley rat liver microsomes assessed as half life at 10 uM preincubated for 5 mins followed by NADPH addition and measured upto 60 mins by HPLC analysis; type: ADME, Microsome
[25] = Intrinsic clearance in Sprague-Dawley rat liver microsomes at 10 uM preincubated for 5 mins followed by NADPH addition and measured upto 60 mins by HPLC analysis; type: ADME, Microsome; settings: read-out: CLH
[26] = Intrinsic clearance in Sprague-Dawley rat liver at 10 uM preincubated for 5 mins followed by NADPH addition and measured upto 60 mins by HPLC analysis; type: ADME, tissue-based; settings: read-out: CLH
[27] = Metabolic stability in Sprague-Dawley rat liver microsomes assessed as compound remaining at 10 uM preincubated for 5 mins followed by NADPH addition and measured upto 60 mins by HPLC analysis; type: ADME, Microsome; settings: read-out: Stability
[28] = Metabolic stability in Sprague-Dawley rat liver microsomes assessed as compound remaining at 10 uM preincubated for 5 mins and measured upto 60 mins by HPLC analysis; type: ADME, Microsome; settings: read-out: Stability
NCI-H2228 [29] = experiment: Antitumor activity against EML4-ALK-positive human NCI-H2228 cells xenografted in female BALB/c nude mouse assessed as tumor growth inhibition at 50 mg/kg, IG administered every 2 days for 7 times; type: functional; settings: NCI-H2228, po, 48 h, time 2 day, read-out: TGI
[30] = Toxicity in female BALB/c nude mouse xenografted with EML4-ALK-positive human NCI-H2228 cells assessed as body weight loss at 25 to 50 mg/kg, IG administered every 2 days for 7 times; type: organism-based; settings: in vivo, po, 48 h, dose 25-50 mg/kg, time 2 day
NCI-H3122 = experiment: cells; settings: Homo sapiens, NCI-H3122, 72 h
Description: Antiproliferative activity against EML4-ALK-positive human NCI-H3122 cells incubated for 72 hrs and measured by CCK-8 assay

NCI-H2228 [31] = experiment: cells; settings: Homo sapiens, NCI-H2228, 72 h
Description: Antiproliferative activity against EML4-ALK-positive human NCI-H2228 cells incubated for 72 hrs and measured by CCK-8 assay

KARPAS-299 = experiment: cells; settings: Homo sapiens, KARPAS-299, 72 h
Description: Antiproliferative activity against NPM-ALK-positive human KARPAS-299 cells incubated for 72 hrs and measured by CCK-8 assay

A549 = experiment: cells; settings: Homo sapiens, A549, 72 h
Description: Antiproliferative activity against EGFR-positive human A549 cells incubated for 72 hrs and measured by CCK-8 assay

CC(C)S(=O)(=O)c1ccccc1Nc1nc(Nc2ccc3c(NC(=O)CN4CCCC4)n[nH]c3c2)ncc1Cl
IC50 [1]: 0.0016 µM
IC50 [2]: 0.00071 µM
IC50 [3]: 0.0013 µM
IC50 [4]: > 1 µM
IC50 (NCI-H460): 8.21 µM
IC50 (NCI-H1581): 1.87 µM
IC50 (MCF7): 2.22 µM
IC50 (HCT-116): 1.56 µM
IC50 (PC-3): 1.23 µM
IC50 at 72 h [5]: > 20 µM
Activity (NCI-H2228 [6]): Active
Activity (NCI-H2228 [7]): 7.3%
Activity (NCI-H2228 [8]): 2.31%
Activity (NCI-H2228 [9]): 17.02%
Activity (NCI-H2228 [10]): 5.01%
Activity (NCI-H2228 [11]): Dde
Activity (NCI-H2228 [12]): Dde
Activity (NCI-H2228 [13]): 18.83%
Activity (NCI-H2228 [14]): 23.28%
Activity (NCI-H2228 [15]): 45.1%
Activity (NCI-H2228 [16]): 45.5%
Activity (NCI-H2228 [17]): 9.4%
Activity (NCI-H2228 [18]): 31.29%
Activity (NCI-H2228 [19]): 61.31%
Activity (NCI-H2228 [20]): 7.4%
Activity (NCI-H2228 [21]): 26.77%
Activity (NCI-H2228 [22]): 73.23%
Activity (NCI-H2228 [23]): 0%
half-life at 10 µM [24]: 16.3 min
microsomal CLint at 10 µM [25]: 84.9 µL/min/mg
CLint scaled at 10 µM [26]: 153 mL/min/kg
remaining at 1 h, 10 µM [27]: 7.5%
remaining at 1 h, 10 µM [28]: 86.2%
inhibition in vivo at 50 mg/kg (NCI-H2228 [29]): 70.5%
Activity [30]: Non-Toxic
IC50 (NCI-H3122): 0.012 µM
IC50 (NCI-H2228 [31]): 0.017 µM
IC50 (KARPAS-299): 0.015 µM
IC50 (A549): 1.33 µM
